The numbers were not newly measured in patent US6767915B2, “Substituted piperidines as melanocortin receptor agonists” (Merck & Co., Inc., priority 2000, dated 2004), which cites them from elsewhere.

One data set deals with erectile dysfunction. The note with it: for duration of effect / onset of action: after an oral dose; for share of men/patients with adequate response: oral.
The conditions of data set [1]: in vivo, po.
In data set [2] the test system is psychogenic erectile dysfunction.

For the compound `Cc1ccc(N(CC2=NCCN2)c2cccc(O)c2)cc1` [phentolamine], in the data set with erectile dysfunction, the duration of effect was 2 h, the onset of action was 5 to 30 min and the “share of men/patients with adequate response” value was 35-40%.

Regarding `CCCc1nn(C)c2c(=O)[nH]c(-c3cc(S(=O)(=O)N4CCN(C)CC4)ccc3OCC)nc12` [sildenafil], in the data set with erectile dysfunction, the duration of effect result is on record as “about 4 hours”, the onset of action is 30 to 60 min and the “share of men/patients with adequate response” value is “about 70%”.

Turning to “Ac-Nle-c[Asp-His-DPhe-Arg-Trp-Lys]-NH2 [MT-II]”, the “absorption into the systemic circulation” value in data set [1] is “not absorbed into the systemic circulation”. Moreover, in data set [2] (injected intramuscularly or subcutaneously, males with psychogenic erectile dysfunction), the response rate was 75%. In data set [2] (subcutaneous injection), the duration of action result was “approximately 2.5 hours” and the “time to onset of erection” value was 10 to 20 min.
